Reference: US5068251A, “Lipoxygenase inhibiting compounds” (Abbott Laboratories, priority 1988, dated 1991)

Legend:
[1] = biological target: T1, 5-lipoxygenase (Rattus norvegicus, UniProt P12527); test: Inhibition of 5-lipoxygenase activity in 20,000×g supernatant from homogenized RBL-1 cells; type: biochemical; conditions: linear regression of percentage inhibition versus log inhibitor concentration, read-out: IC50 (In vitro 5-lipoxygenase inhibitory potency)
T1 construct: 20,000×g supernatant from homogenized RBL-1 cells; endogenous in cells; host or cells: RBL-1 cells (20,000×g supernatant of the homogenate)
T1 sequence (P12527 1-673): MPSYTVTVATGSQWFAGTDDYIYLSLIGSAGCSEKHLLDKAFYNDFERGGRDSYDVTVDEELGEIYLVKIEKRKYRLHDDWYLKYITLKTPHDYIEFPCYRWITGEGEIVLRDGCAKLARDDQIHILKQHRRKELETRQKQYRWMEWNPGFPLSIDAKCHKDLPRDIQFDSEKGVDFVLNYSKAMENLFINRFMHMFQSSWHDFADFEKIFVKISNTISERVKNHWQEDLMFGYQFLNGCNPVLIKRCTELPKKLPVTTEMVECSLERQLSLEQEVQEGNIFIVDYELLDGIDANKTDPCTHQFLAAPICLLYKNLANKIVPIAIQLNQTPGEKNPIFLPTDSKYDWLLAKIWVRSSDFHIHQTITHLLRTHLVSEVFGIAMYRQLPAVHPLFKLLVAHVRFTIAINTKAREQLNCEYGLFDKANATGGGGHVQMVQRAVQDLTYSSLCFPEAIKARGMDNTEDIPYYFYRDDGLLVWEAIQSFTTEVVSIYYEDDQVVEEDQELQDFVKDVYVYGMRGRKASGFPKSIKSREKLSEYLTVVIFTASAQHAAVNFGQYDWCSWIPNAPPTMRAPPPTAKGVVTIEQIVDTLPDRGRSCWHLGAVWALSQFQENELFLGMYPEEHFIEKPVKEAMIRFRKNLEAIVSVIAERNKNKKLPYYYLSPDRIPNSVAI
Procedure: Inhibition of 5-lipoxygenase activity was determined using the 20,000×g supernatant from homogenized RBL-1 cells in a similar manner as that described by Dyer and coworkers (Dyer, R. D.; Haviv, F.; Hanel, A. M.; Bornemier, D. A.; Carter, G. W. Fed. Proc , Fed. Am. Soc. Exp. Biol. 1984, 43, 1462A).

[2] = test system: leukotriene biosynthesis; test: Inhibition of leukotriene biosynthesis in vivo, rat peritoneal anaphylaxis model; conditions: 40 mg/kg i.p., 30 minutes prior to antigen challenge, peritoneal fluids collected 15 minutes after challenge, versus mean of control group
Procedure: Inhibition of the biosynthesis of leukotrienes in vivo after intraperitoneal administration of compound was determined using a rat peritoneal anaphylaxis model. In this model rats were injected intraperitoneally (ip) with rabbit antibody to bovine serum albumin (BSA) and three hours later injected ip with BSA to induce an antgen-antibody response. Rats were sacrificed 15 minutes after this challenge and the peritoneal fluids were collected and analyzed for leukotriene levels. Test compound was injected intraperitoneal 30 minutes prior to the antigen challenge. Percent inhibition values were determined by comparing the treatment group to the mean of the control group.

Row | IC50 [1] [nM] | SMILES | inhibition of leukotriene biosynthesis in vivo [2] [%]
1 | 1900 | CC(C)Cc1ccc(C(C)CNC(=O)NO)cc1 (stereo not drawn) [Example 4, N'-hydroxy-N-[2-(4-(2'-methylpropyl)phenyl)]urea] | 
2 |  | COc1ccc2c(c1)c(CNC(=O)N(C)O)c(C)n2C(=O)c1ccc(Cl)cc1 [Example 1, N'-hydroxy-N'-methyl-N-(4'-chlorobenzoyl-5-methoxy-2-methyl-3-indolyl)methyl urea] | 81
3 | 2900 | CC(C)Cc1ccc(C(C)NC(=O)NO)cc1 (stereo not drawn) [Example 3, N'-hydroxy-N-[l-(4-(2'methylpropyl)phenyl)ethyl]urea] | 
